# Tested on: Keratinocytes (H-tert-keratinocytes) subjected to oxidative stress
# Assay: Oxidative Stress Test (cellular ATP level, ATP Glo luminescence)
# Type: cell-based, human
# Conditions: 90 minutes
# Description: This test method provides a suitable way to determine the ability of a test agent to improve cellular ATP production in cells subjected to oxidative stress.
# Keratinocytes (e.g., H-tert-keratinocytes from University of Texas Southwestern) are cultured in T150 flasks in EpiLife Medium (e.g., catalogue #MEPICFPRF500 from Thermo Fisher Scientific) supplemented with human keratinocyte growth supplement (e.g., catalogue #S-001-5 from Thermo Fisher Scientific) and 1% penicillin/streptomycin (e.g., catalogue #15140-122 from Thermo Fisher Scientific). When the keratinocytes reach ˜70% confluency, they are plated out into 96 well plates (white, clear bottom with 20,000 cells/well). Incubate the plates for 24 hours before the experimental stress and treatment are applied.
# The 96 well plate is divided into three groups of samples (wells) as follows: (i) no stress and no treatment is applied, (ii) stress is applied but no treatment and (iii) stress and treatment are both applied. In combination experiments, stress plus 2 treatments may be applied. For the no stress/no treatment samples (i.e., group (i) above), the culture medium is simply refreshed. For the stressed samples (i.e., group (ii) and (iii) above), culture medium containing 400 μM hydrogen peroxide (HOOH) is used to replace the medium. For the treatment samples (i.e., group (iii) above), immediately after adding the HOOH, pipette the treatment(s) into the wells from a 100× master stock. Return the plates to the CO2 incubator for 90 minutes before measuring ATP.
# ATP is measured by removing the media from the samples and replacing it with ATP Glo® reagent (available from Promega, Madison, WI), or equivalent, per manufacturer's instructions. After 10 minutes of exposure at room temperature, the luminescence of each sample can be measured using a Perkin Elmer ENVISION brand plate reader or equivalent. Luminescent counts are directly proportional to ATP level in the cells. Record the luminescent counts for each sample.
# Replicates of each treatment group are averaged together, and standard p-value calculations are used (2-sided, equal variance) to calculate significance. In cases where 2 treatments appear to synergistically enhance ATP levels, the results of the combined treatments can be compared to the sum of the individual treatments to determine a synergy factor. The synergy factor is calculated as the ratio of the observed effect from the combined treatments divided by the sum of the results from each individual treatment.
# The test agents used in the Oxidative Stress Test are limited to relatively low concentrations due to cell toxicity. That is, applying high concentrations of the test agent directly to “unprotected” keratinocytes may kill some of all of the cells, which would obviously skew the test results. […]
compound,measurement,setting,value
"CCCCCCCCC(CO)CCCCCC (stereo not shown) [Fatty Alcohol, hexyldecanol]",Measured ATP level,"Fatty Alcohol 0.2 ppm, 400 μM hydrogen peroxide",368.3
same,Measured ATP level,"Fatty Alcohol 1 ppm, keratinocytes stressed with 400 μM hydrogen peroxide, luminescent counts",534.3
same,Measured ATP level,"Fatty Alcohol 5 ppm, 400 μM hydrogen peroxide",708.0
same,Measured ATP level,"Fatty Alcohol 50 ppm, 400 μM hydrogen peroxide",962.3
